Results reported in publication PMC4520450, “Procyanidins Negatively Affect the Activity of the Phosphatases of Regenerating Liver” (PLoS ONE, 2015).

What was measured:
Caco-2 cell model = system: Caco-2 cell model; parameters: method as in PMID 23885956; conditions: within 24h; cited from earlier work
TCPTP = target: T1, TCPTP (Homo sapiens, UniProt P17706); test: DiFMUP assay for PTP1B, TCPTP, VHR; format: biochemical; conditions: 12.5 μM, 30 min incubation, 20 μM DiFMUP, 50 nM enzyme
T1 construct: made in house
T1 sequence (P17706 1-415): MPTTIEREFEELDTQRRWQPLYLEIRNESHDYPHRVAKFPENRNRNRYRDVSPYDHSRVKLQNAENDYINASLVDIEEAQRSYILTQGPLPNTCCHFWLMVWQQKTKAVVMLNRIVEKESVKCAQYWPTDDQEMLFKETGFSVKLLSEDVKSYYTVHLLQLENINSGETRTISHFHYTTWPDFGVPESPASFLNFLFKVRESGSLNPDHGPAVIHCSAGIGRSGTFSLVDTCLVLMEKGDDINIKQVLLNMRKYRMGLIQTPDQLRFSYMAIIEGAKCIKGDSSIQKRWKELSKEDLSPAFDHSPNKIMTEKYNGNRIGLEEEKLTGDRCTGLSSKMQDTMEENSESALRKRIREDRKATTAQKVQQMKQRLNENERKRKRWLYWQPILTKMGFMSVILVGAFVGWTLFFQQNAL
Procedure: (§1) As an extension of our studies we included PTP1B, VHR and TCPTB as examples for phosphotyrosine specific phosphatases in our activity studies, because tea extracts were reported to inhibit PTP1B [43]. For comparison with PRL-3, these proteins were used in the same concentration (50 nM) as PRL-3 and DiFMUP was also used as a substrate in 20 μM concentration. The enzymes were incubated with three different concentrations of procyanidin C2 (9) for 30 min before the measurement.
(§2) Fig 3 Effect of procyanidin C2 (9) on the phosphatase activity of VHR, PTP1B and TCPTP using DiFMUP as a substrate. Proteins were incubated with compound 9 for 30 min., phosphatase activity measurements were performed using 20 μM DiFMUP. Phosphatase activity in the absence of compound 9 was set as 100%. Data represent means ± standard errors of the mean (n = 3).
(§3) DiFMUP assay for PTP1B, TCPTP, VHR: In a final reaction volume of 100 μL the PTPs (50 nM final concentration) were incubated with […] of procyanidin C2 (9) for 30 minutes at 25°C. The buffer conditions were pH 7.2, 4-/2-Hydroxyethyl)-1-piperazineethanesulfonic acid (HEPES) 25 mM, EDTA 2.5 mM, DTT 2.0 mM, NaCl 124.4 mM. After the incubation time 20 μL DiFMUP was added to reach a final concentration of 20 μM. On a Tecan safire2 (Tecan, Salzburg, Austria) plate reader dephosphorylation of the substrate to its fluorescent product was monitored by following the emission at […] for 10 minutes. All measurements were done in triplicates, and the experiments were repeated at least three times. The slopes of the initial phases were obtained by linear regression of the data points. The normalized reaction rates were plotted versus the log of the inhibitor concentrations and the IC50 values were obtained by fitting the curves using the one site competition model of GraphPad Prism (GraphPad Software, Version 5). Due to the high water solubility of 9 DMSO was not required and measurements were done in assay buffer only.

VHR = target: T2, VHR (Homo sapiens, UniProt P51452); test: DiFMUP assay for PTP1B, TCPTP, VHR; format: biochemical; conditions: 12.5 μM, 30 min incubation, 20 μM DiFMUP, 50 nM enzyme
T2 construct: made in house
Procedure: as §1, §2, §3

PTP1B = target: T3, PTP1B (Homo sapiens, UniProt P18031); test: DiFMUP assay for PTP1B, TCPTP, VHR; format: biochemical; conditions: 12.5 μM, 30 min incubation, 20 μM DiFMUP, 50 nM enzyme
T3 construct: made in house
T3 sequence (P18031 1-435): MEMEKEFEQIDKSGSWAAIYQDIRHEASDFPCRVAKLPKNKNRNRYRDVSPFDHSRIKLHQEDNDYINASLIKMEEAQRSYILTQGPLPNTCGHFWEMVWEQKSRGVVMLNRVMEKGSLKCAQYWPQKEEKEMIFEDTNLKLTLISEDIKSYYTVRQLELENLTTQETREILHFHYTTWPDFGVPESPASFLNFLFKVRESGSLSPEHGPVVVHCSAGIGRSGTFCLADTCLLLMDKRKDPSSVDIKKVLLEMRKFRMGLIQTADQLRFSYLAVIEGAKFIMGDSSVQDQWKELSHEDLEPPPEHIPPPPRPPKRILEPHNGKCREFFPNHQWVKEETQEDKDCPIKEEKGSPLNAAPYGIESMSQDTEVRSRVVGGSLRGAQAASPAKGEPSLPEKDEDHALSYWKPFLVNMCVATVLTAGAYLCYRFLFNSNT
Procedure: as §1, §2, §3

T2 sequence (P51452 whole entry, species assumed): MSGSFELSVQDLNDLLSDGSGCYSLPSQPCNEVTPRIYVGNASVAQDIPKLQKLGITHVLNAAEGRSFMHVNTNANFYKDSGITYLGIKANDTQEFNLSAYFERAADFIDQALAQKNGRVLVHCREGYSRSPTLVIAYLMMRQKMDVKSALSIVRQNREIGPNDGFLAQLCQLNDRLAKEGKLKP

| SMILES | permeation (Caco-2 cell model) | TCPTP phosphatase activity compared to the control (TCPTP) | VHR phosphatase activity compared to the control (VHR) | PTP1B phosphatase activity compared to the control (PTP1B) |
| --- | --- | --- | --- | --- |
| Oc1cc(O)c2c(c1)O[C@H](c1ccc(O)c(O)c1)[C@@H](O)[C@@H]2c1c(O)cc(O)c2c1O[C@H](c1ccc(O)c(O)c1)[C@@H](O)C2 [Procyanidin B3 (8), Procyanidin B3] | up to 0.2% | – | – | – |
| Oc1cc(O)c2c(c1)O[C@H](c1ccc(O)c(O)c1)[C@@H](O)[C@@H]2c1c(O)cc(O)c2c1O[C@H](c1ccc(O)c(O)c1)[C@@H](O)[C@@H]2c1c(O)cc(O)c2c1O[C@H](c1ccc(O)c(O)c1)[C@@H](O)C2 [Procyanidin C2 (9), Procyanidin C2] | – | 75–85% | 75–85% | 75–85% |
